Experimental data taken from publication PMC10245146, “CNS4 causes subtype‐specific changes in agonist efficacy and reversal potential of permeant cations in NMDA receptors” (Pharmacology Research & Perspectives, 2023).

Assays:
[1] = test system: untransfected HEK293T cells; test: Whole-cell patch-clamp on untransfected HEK293T cell; type: cell-based, human; conditions: 100 μM CNS4
Description: (§1) Whole‐cell patch‐clamp electrophysiology studies were carried out in HEK‐293T cells expressing recombinant NMDA receptors that lack native functional NMDA receptors.[29], [30], [31] An equal quantity of (1 μg) cDNA for GluN1a, GluN2 subunits were co‐transfected 24‐48 h before patch‐clamp electrophysiology assay. […] Cells were carefully washed before performing experiments and were used for the electrophysiology experiments after 24 to 48 h incubation at 37°C with 5%CO2. The whole‐cell patch‐clamp electrophysiology assay was performed using semi‐automated patch‐clamp equipment, Port‐a‐Patch (Nanion Technologies GmbH). Following are the constituents of various solutions used for patch‐clamp electrophysiology: internal solution ([mM] NaCl 10, EGTA 20, CsF 110, HEPES 10), Mg‐free external (recording) solution ([mM] NaCl 140, KCl 4, CaCl2 2, HEPES 10, D‐GlucoseMonohydrate 5), and Mg‐free seal enhancer solution ([mM] NaCl 80, KCl 3, CaCl2 35, HEPES 10). Nanion NPC chips with […] resistance were used for the HEK‐293T cell recordings.
(§2) FIGURE 1 CNS4 sensitizes ambient concentration of agonists in GluN2 subunit dependent manner. […] Statistical significance was calculated from the Wilcoxon matched‐pairs signed rank test, except the comparison between 1/2A & 1/2AB CNS4 with no agonist data, which was done by unpaired t‐test. […]

GluN1/2A NMDA receptors = biological target: T1, GluN1/2A NMDA receptors (UniProt P35439+Q12879); test: TEVC agonist dose-response, Xenopus oocytes expressing 1/2A; type: cell-based
T1 construct: expressed in transfected cells; host or cells: Xenopus oocytes (cRNA injection)
T1 sequence (Q12879 23-1464, other chains not shown): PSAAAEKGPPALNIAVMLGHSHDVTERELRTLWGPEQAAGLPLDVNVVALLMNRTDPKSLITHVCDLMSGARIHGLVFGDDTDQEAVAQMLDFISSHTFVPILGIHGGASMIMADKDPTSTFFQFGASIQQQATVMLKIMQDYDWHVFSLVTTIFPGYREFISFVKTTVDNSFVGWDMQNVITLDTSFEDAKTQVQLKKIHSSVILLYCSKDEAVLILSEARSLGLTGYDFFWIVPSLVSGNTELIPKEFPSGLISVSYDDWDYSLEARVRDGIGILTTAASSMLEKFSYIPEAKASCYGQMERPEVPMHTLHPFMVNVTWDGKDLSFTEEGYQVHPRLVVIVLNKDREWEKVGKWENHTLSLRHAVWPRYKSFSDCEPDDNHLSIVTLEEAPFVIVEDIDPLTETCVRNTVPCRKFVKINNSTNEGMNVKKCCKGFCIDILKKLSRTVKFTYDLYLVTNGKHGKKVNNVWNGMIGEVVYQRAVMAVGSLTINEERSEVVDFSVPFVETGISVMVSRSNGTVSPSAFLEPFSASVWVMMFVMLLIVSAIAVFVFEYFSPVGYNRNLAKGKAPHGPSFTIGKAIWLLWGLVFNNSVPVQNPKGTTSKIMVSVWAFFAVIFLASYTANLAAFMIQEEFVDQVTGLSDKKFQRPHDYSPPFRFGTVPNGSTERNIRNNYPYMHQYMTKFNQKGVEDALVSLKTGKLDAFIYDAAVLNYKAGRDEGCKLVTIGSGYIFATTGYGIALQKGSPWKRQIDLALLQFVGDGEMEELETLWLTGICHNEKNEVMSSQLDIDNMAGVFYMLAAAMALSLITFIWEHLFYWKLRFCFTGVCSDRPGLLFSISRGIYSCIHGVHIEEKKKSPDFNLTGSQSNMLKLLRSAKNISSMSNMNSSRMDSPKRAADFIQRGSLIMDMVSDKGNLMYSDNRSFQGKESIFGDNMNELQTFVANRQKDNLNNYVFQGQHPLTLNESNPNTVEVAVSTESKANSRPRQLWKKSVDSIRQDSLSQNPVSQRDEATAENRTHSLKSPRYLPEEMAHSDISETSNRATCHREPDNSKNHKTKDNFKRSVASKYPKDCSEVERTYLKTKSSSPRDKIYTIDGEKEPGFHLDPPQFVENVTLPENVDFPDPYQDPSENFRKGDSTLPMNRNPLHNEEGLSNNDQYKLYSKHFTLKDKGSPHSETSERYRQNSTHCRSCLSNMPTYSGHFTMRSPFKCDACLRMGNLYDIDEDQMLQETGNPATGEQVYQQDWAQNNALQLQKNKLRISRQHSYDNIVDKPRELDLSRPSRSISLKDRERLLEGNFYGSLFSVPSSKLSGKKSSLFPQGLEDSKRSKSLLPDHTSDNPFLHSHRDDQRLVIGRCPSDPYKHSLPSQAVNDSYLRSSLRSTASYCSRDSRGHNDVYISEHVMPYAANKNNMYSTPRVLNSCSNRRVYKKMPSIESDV
Excerpt: NMDA receptor constructs: cDNA encoding the NMDA receptor1a subunit (GluN1a) was obtained from Dr. Nakanishi (Kyoto, Japan). cDNA encoding the GluN2B (pci_sepGluN2B), originally developed in the Malinow lab,[33] was purchased from Addgene (cat# 23998), Cambridge, MA. cDNA encoding the GluN2C and GluN2D were purchased from GenScript, New Jersey, USA. Mutated GluN1, 2A and 2B cDNA constructs capable of assembling as GluN1/2A/2B triheteromeric (1/2AB) receptors[34] were obtained from Dr. Paoletti (Laboratoire de Neurobiologie, CNRS). These constructs have been previously tested for 1/2AB receptor activity of GluN1/2A receptor‐selective potentiators.[35] […] Plasmids were linearized with NotI (GluN1a and all five GluN1 mutants) or Avrll (GluN2B), or BstB1 (GluN2C and GluN2D) and transcribed in vitro with T7 (GluN1a, GluN1/2A, GluN2B, GluN2C & GluN2D), and SP6 (GluN1 mutants) RNA polymerase using the mMessage mMachine transcription kits (Invitrogen by Thermo Fisher Scientific).
Stage IV frog oocytes were obtained from Xenopus‐I, (Ann Arbor, MI, USA). NMDA receptor subunit cRNAs were suspended in nuclease free sterile water. GluN1A, GluN2B, GluN2C, GluN2D and GluN1/2A/2B cRNAs were mixed in a ratio of 1:1–3. 50 nL of the final cRNA mixture was microinjected (40–70 ng total) into the oocyte cytoplasm. Oocytes were incubated in ND‐96 solution at 18°C prior to electrophysiological recordings (2–5 days).
Electrophysiological responses were measured using a standard two‐microelectrode voltage‐clamp workstation (Warner Instruments model OC‐725C) designed to provide a fast clamp of large cells. The recording buffer contained 116 mM NaCl, 2 mM KCl, 0.3 mM BaCl2, and 5 mM HEPES, pH 7.4. Response magnitude was determined in Xenopus oocytes expressing different NMDA receptor subunits (GluN1/2A, 1/2B, 1/2C, 1/2D, and 1/2A/2B) by the steady plateau response elicited by bath application of different agonist concentrations. […] All data points were obtained from the steady state currents unless stated otherwise. Dose–response relationships were fit to an appropriate curve‐fitting equation using GraphPad Prism‐7. Non‐linear regression was used to calculate EC50, IC50, and fold change or percentage maximal response. Curves were fit using the following equations as performed in the previous studies, [37]: Y=100/1+10^LogEC50−XorY=Bottom+Top−Bottom/1+10^LogEC50−X . Statistical significance was determined at the overall alpha level 0.05, using appropriate statistical methods as described in all figure captions. Technical and biological replicates are explicitly mentioned in each figure legend, as n = X (Y). X represents technical repeats (number of traces) and Y represents biological repeats (number of oocytes or HEK293T cells studied). […]

GluN1/2A receptors = biological target: T2, GluN1/2A receptors (UniProt P35439+Q12879); test: Whole-cell patch-clamp, HEK293T cells expressing recombinant GluN1/2A; type: cell-based; conditions: 100 μM CNS4 applied 4 s before and with 100 μM glutamate + 100 μM glycine; agonist alone −323.5 ± 82 pA; n = 4(3), p = .12
T2 construct: expressed in transfected cells; host or cells: HEK-293T
T2 sequence (Q12879 23-1464, other chains not shown): as above
Description: as §1, §2

## O=C(NC(=S)N1CCCCC1c1cccnc1)c1ccc(F)cc1 (stereo not drawn) [CNS4]
[1]
  Current response: did not produce any measurable current response
GluN1/2A NMDA receptors; absence of glycine, presence of CNS4, n = 6(3)
  100 μM glutamate induced relative current amplitude (glutamate efficacy): 0.04 ± 0.02 fold
GluN1/2A NMDA receptors; in the presence of 30 μM glycine and 30 μM CNS4, n = 9 (3)
  Glutamate efficacy: 297.8 ± 71.06 fold
GluN1/2A NMDA receptors; with 30 μM CNS4, 100 μM glutamate constant, relative to 1 μM glycine, average ± SEM, p = .19
  Glycine efficacy: relative fold change in current at highest glycine concentration: 2.59 ± 0.36 fold
GluN1/2A NMDA receptors; with 30 μM CNS4, 100 μM glycine constant, relative to 1 μM glutamate, p = .2898
  Glutamate efficacy: relative fold change in current at highest glutamate concentration: 2.95 ± 0.45 fold
GluN1/2A receptors
  Peak current amplitude: −469.3 ± 152 pA
